Data reported in patent publication US12577256B2, “Aryl receptor modulators and methods of making and using the same” (Nogra Pharma Limited, priority 2014, dated 2026).

Key:
IL-22 = IL-22 RNA expression in anti-CD3/anti-CD28 stimulated PBMC (real-time PCR); format: cell-based, human; conditions: anti-CD3/anti-CD28, 100, 200 or 400 nM compound, 24 hours, RNA (FIG. 24)
Protocol: (§1) Peripheral blood mononuclear cells (PBMC), isolated from 3 healthy subjects, were isolated by density gradient centrifugation (Lymphoprep; Nycomed Pharma) from 5 mL heparinized blood samples. PBMC were resuspended in RPMI 1640 supplemented with 10% fetal calf serum at a concentration of 1×10^6 cells/mL, cultured in 24-well culture plates (Falcon Plastic) and stimulated with medium alone or anti-CD3/anti-CD28 (Miltenyi Biotec) antibodies with or without 100, 200, or 400 nM of AhR binding compounds (02, 04, 13, 15, 17, or 24), dimethyl sulfoxide or 6-formylindolo[3,2-b]cathazole (Ficz, 200 nM). Total RNA was extracted from cells cultured for 24 hours. For RNA preparation, cells were lysed in 1 mL of guanidium thiocyanate buffer and subjected to phenol/chloroform extraction using TRizol reagent (Invitrigen). The sample obtained was quantitated by absothance at 260 nm and complementary DNA (cDNA) was synthetized from […] of total RNA. cDNA was amplified using the following conditions: denaturation for 1 minute at 95° C.; annealing for 30 seconds at 58° C. for IFN-γ, and 60° C. for f3-actin; and followed by 30 seconds of extension at 72° C. […] IL-22 was evaluated using commercially available TaqMan probes (Applied Biosystems). β-actin (forward (SEQ ID NO. 3) 5′-[…]-3′, reverse (SEQ ID NO.4) 5′-[…]-3′) was used as a housekeeping gene. Gene expression was calculated using the AACt algorithm.

IFN-γ = IFN-γ RNA expression in anti-CD3/anti-CD28 stimulated PBMC (real-time PCR); format: cell-based, human; conditions: anti-CD3/anti-CD28, 100, 200 or 400 nM compound, 24 hours, RNA (FIG. 24)
Protocol: as §1

AhR = target: T1, AhR (Homo sapiens, UniProt P35869); conditions: cited from earlier work
T1 sequence (P35869 11-848): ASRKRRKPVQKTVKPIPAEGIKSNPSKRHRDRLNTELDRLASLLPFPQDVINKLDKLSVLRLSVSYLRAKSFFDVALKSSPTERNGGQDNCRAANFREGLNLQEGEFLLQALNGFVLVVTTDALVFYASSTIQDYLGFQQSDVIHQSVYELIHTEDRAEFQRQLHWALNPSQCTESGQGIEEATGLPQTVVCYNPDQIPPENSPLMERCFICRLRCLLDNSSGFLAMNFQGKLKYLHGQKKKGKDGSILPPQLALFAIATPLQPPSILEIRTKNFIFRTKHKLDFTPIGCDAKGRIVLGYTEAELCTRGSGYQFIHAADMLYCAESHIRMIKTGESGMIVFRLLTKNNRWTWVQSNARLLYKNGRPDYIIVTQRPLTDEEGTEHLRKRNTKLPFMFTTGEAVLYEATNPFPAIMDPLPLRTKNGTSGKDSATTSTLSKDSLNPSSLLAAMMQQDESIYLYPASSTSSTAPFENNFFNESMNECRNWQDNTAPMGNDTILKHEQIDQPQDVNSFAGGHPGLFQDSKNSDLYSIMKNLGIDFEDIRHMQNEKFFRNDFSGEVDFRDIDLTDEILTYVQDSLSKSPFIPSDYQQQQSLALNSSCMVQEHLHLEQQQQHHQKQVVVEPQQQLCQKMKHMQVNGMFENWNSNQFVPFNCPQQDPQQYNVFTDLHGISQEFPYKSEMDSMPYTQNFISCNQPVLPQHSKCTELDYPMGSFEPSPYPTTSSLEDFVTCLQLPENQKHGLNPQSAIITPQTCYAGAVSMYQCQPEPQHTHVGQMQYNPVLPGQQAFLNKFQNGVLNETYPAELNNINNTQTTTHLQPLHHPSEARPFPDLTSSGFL

[1] = cited from earlier work

Compound | production of IL-22 (IL-22) | production of IFN-γ (IFN-γ) | activation of the AhR (AhR) | anti-inflammatory properties in vivo [1]
COc1ccc(Cc2nc3ccc(C(F)(F)F)cc3s2)cc1OC [compound 15, 2-(3,4-dimethoxybenzyl)-6-(trifluoromethyl)benzo[d]thiazole] | strongly increases | decreasing |  | 
Cc1oncc1C(=O)Nc1ccc(C(F)(F)F)cc1 [Leflunomide] |  |  | activates | 
C=CCn1nc(-c2ccc(OC)c(OC)c2)c2cccc(C(F)(F)F)c21 [SGA 360] |  |  |  | exhibits anti-inflammatory properties in vivo
COc1cc(Nc2nc3ccccc3[nH]2)cc(OC)c1OC [compound 17, N (3,4,5-trimethoxyphenyl)-1H-benzo[d]imidazol-2-amine] | strongly increases | decreasing |  | 
